pIC50: −log10 of the molar value. Read-outs that look alike come from different tables or passages of the source.
How the values were obtained:
[1] = in vivo pharmacokinetics, plasma and brain exposure; conditions: for Kp: rodents
Text: Brain penetration may be assessed by evaluating free brain/plasma ratio (Bu/Pu) as measured in vivo pharmacokinetic studies in rodents.

[2] = tested on: TNF-alpha induced hypothermia; conditions: dose of 30 mg/kg, according to WO 2014/125444; cited from earlier work
U937 cells = assay: U937 cell necroptosis assay (TNFa + zVAD, CellTiter-Glo); type: cell-based, human; conditions: Homo sapiens
Method in brief: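 Human U937 and murine L929 cells in RPMI 1640/10% FBS were pre-incubated 1 h at 37 °C with serially diluted compound plus zVAD-fmk (U937 plated with 60 uM, L929 medium with 40 uM), then stimulated with 2 ng/mL TNFa (final). Viability read by CellTiter-Glo luminescence after 18 h.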

RIPK1 = RIPK1 (Homo sapiens (Human), UniProt Q13546); assay: RIPK1 ADP-Glo biochemical kinase assay; conditions: read-out: RIPK1 ADP-Glo Kinase (IC50)
Procedure: The final reaction volume was 5.0ul.
Adding 5 μl of ADP-Glo™ terminated the reaction.

L929 cells = assay: L929 cell necroptosis assay (TNFa + zVAD, CellTiter-Glo); type: cell-based, murine
Method in brief: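 Murine L929 cells, plated 18 h beforehand at 10K cells/well in RPMI 1640 with 10% FBS, were switched to medium containing 40 uM zVAD-fmk and given compound from 4-fold serial dilutions. Viability after 18 h of TNFa stimulation at 37° C was read by CellTiter-Glo luminescence.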

[3] = U-937, read-out: U937 Zvad TNF CTG Recovery, U937, TNFa + zVAD (IC50), U937 cells, TNFa + zVAD

Sequence of RIPK1 (Q13546 whole entry, species assumed): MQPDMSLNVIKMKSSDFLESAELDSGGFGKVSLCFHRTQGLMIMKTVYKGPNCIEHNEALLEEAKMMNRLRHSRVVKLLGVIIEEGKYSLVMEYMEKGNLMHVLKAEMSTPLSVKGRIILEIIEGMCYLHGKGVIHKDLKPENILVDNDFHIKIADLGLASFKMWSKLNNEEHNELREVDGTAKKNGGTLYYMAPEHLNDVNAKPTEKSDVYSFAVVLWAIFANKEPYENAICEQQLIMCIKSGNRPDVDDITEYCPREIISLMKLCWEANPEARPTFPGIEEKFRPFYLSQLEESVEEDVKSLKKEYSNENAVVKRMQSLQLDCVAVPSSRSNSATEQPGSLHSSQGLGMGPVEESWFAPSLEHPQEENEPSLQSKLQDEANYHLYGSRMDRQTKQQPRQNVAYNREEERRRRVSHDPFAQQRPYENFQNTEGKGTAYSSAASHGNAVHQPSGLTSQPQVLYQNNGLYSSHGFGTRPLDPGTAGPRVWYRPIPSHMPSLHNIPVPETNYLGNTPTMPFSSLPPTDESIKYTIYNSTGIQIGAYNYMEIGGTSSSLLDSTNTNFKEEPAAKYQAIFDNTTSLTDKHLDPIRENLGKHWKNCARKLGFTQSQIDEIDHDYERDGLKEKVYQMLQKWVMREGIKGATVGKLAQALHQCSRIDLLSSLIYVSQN

SMILES	BRAIN AUC0-6 [1]	Kp ([1]; in vivo)	pIC50 (RIPK1)	Kp ([1]; brain/plasma)	also measured
CN1C(=O)C(NC(=O)n2cc(Cc3ccccc3)cn2)CCc2ccc(N3CC4(CCOCC4)C3)cc21 (racemic) [Compound I-182, (±)-4-Benzyl-N-(1-methyl-2-oxo-8-(7-oxa-2-azaspiro[3.5]nonan-2-yl)-2,3,4,5-tetrahydro-1H-benzo[b]azepin-3-yl)-1-pyrazole-1-carboxamide]	157	0.56			
CN1C(=O)[C@@H](NC(=O)c2nnc(Cc3ccccc3)[nH]2)COc2ccccc21 [(S)-5-benzyl-N-(5-methyl-4-oxo-2,3,4,5-tetrahydrobenzo[b][1,4]oxazepin-3-yl)-4H-1,2,4-triazole-3-carboxamide]					inhibition of TNF-alpha induced hypothermia [2]: 93%
CN1C(=O)[C@@H](NC(=O)c2cc(Oc3ccccc3)ccn2)COc2ccc(C#CC3(C)COC3)cc21 [Compound I-127, (S)—N-(5-methyl-7-((3-methyloxetan-3-yl)ethynyl)-4-oxo-2,3,4,5-tetrahydrobenzo[b][1,4]oxazepin-3-yl)-4-phenoxypicolinamide]	160		7.53	0.98	pIC50 (U937 cells; [3]): 9.52; pIC50 (L929 cells; Mus musculus, L929, read-out: L929-CTG-recovery, L929, TNFa + zVAD (IC50), L929 cells, TNFa + zVAD): 7.39
CN1C(=O)[C@@H](NC(=O)c2cc(Oc3ccccc3)ccn2)COc2ccc(C#CC(C)(C)N)cc21 [Compound I-139, (S)—N-(7-(3-amino-3-methylbut-1-yn-1-yl)-5-methyl-4-oxo-2,3,4,5-tetrahydrobenzo[b][1,4]oxazepin-3-yl)-4-phenoxypicolinamide]	1100		7.67	1.29	pIC50 (U937 cells; [3]): 8.11; pIC50 (L929 cells; read-out: L929-CTG-recovery, L929, TNFa + zVAD (IC50), L929 cells, TNFa + zVAD): 6.27
COC1(C#Cc2ccc3c(c2)N(C)C(=O)[C@@H](NC(=O)c2cc(Oc4ccccc4)ccn2)CO3)CN(C)C1 [Compound I-155, (S)—N-(7-((3-methoxy-1-methylazetidin-3-yl)ethynyl)-5-methyl-4-oxo-2,3,4,5-tetrahydrobenzo[b][1,4]oxazepin-3-yl)-4-phenoxypicolinamide]	373		7.61	1.7	pIC50 (U937 cells; U-937, U937 cells, TNFa + zVAD, read-out: U937 Zvad TNF CTG Recovery, U937, TNFa + zVAD (IC50)): 8.89; pIC50 (L929 cells; Mus musculus, L929, L929 cells, TNFa + zVAD, read-out: L929-CTG-recovery, L929, TNFa + zVAD (IC50)): 6.50
CN1C(=O)[C@@H](NC(=O)n2cc(Cc3ccc(F)cc3)cn2)COc2ccc(C#CC3(C)COC3)cc21 [Compound I-180, (S)-4-(4-fluorobenzyl)-N-(5-methyl-7-((3-methyloxetan-3-yl)ethynyl)-4-oxo-2,3,4,5-tetrahydrobenzo[b][1,4]oxazepin-3-yl)-1H-pyrazole-1-carboxamide]	251			2.44	
CN1C(=O)[C@@H](NC(=O)c2nn(Cc3ccccc3)cc2F)COc2ccc(N3CCC4(CCOCC4)C3)cc21 [Compound I-181, (S)-1-Benzyl-4-fluoro-N-(5-methyl-4-oxo-7-(8-oxa-2-azaspiro[4.5]decan-2-yl)-2,3,4,5-tetrahydrobenzo[b][1,4]oxazepin-3-yl)-1H-pyrazole-3-carboxamide]	456	0.46			
Cc1cccc(C#Cc2ccc3c(c2)N(C)C(=O)[C@@H](NC(=O)n2cc(Cc4ccc(F)cc4)cn2)CO3)n1 [Compound I-183, (S)-4-(4-fluorobenzyl)-N-(5-methyl-7-((6-methylpyridin-2-yl)ethynyl)-4-oxo-2,3,4,5-tetrahydrobenzo[b][1,4]oxazepin-3-yl)-1H-pyrazole-1-carboxamide]	326			0.9	
CN1C(=O)[C@@H](NC(=O)n2cc(Cc3ccc(F)cc3)cn2)COc2ccc(N3CC4(CCOCC4)C3)cc21 [Compound I-184, (S)-4-(4-fluorobenzyl)-N-(5-methyl-4-oxo-7-(7-oxa-2-azaspiro[3.5]nonan-2-yl)-2,3,4,5-tetrahydrobenzo[b][1,4]oxazepin-3-yl)-1H-pyrazole-1-carboxamide]	731	0.93			
